{"source": "patent US20240300945A1", "about": "“CLY SERIES COMPOUND, PREPARATION METHOD THEREFOR AND USE THEREOF IN PREPARATION OF DRUGS” (NANJING WELLBEST PHARMACEUTICAL CO., LTD, priority 2021, published 2024)", "key": {"rabbit ear acne model [1]": {"test_system": "rabbit ear acne model", "assay": "Rabbit ear acne model: macroscopic observation and histological grading", "assay_type": "in vivo, New Zealand rabbits", "details": "for number of rabbits with acne histological grading 2+: Grade 2; for number of rabbits with acne histological grading 2+ / number of rabbits with acne histological grading — / number of rabbits with acne histological grading 1+ / number of rabbits with acne histological grading 3+: right ear, 10 per group; for number of rabbits with acne histological grading —: Level 0, without acne; for number of rabbits with acne histological grading 1+: Level 1; for number of rabbits with acne histological grading 3+: Level 3", "from_the_text": "(1) Preparation method of treatment cream: The excipient matrix components included methyl silicone oil (15%), stearic acid (6%), white vaseline (5%), liquid paraffin (5%), octadecanol (5%), glycerin (20%), alkyl aryl polyglycol ether (1%), fatty alcohol polyoxyethylene ether (1%), […] (1%), ethyl paraben (0.1%), distilled water (about 31-55%), and mixed with appropriate amount of CLY series compounds to form a mixed emulsion. The emulsion matrix used in this embodiment refers to the matrix component after the active ingredient was removed from the emulsion.\n(2) Positive therapeutic drug: 0.1% adapalene gel (Trade name: Differin, produced by Laboratoires Galderma, France).\n(§1) New Zealand rabbits were, according to weights, randomly divided into the model control group (applied cream matrix), positive treatment group (applied Differin on the skin), CLY-1 external treatment group (0.25% CLY-1 cream on the skin), CLY-2 external treatment group (0.25% CLY-2 cream on the skin), CLY-3 external treatment group (0.25% CLY-3 cream on the skin), CLY-4 external treatment group (0.25% CLY-4 cream on the skin) CLY-8 external treatment group (0.25% CLY-8 cream on the skin), CLY-9 external treatment group (0.25% CLY-9 cream on the skin), CLY-11 external treatment group (0.25% CLY-11 cream on the skin), CLY-19 external treatment group (0.25% CLY-19 cream on the skin), CLY-36 external treatment group (0.25% CLY-36 cream on the skin); CLY-1 intravenous injection group (1 mg/kg·d), CLY-2 intravenous injection group (1 mg/kg·d), CLY-3 intravenous injection group (1 mg/kg·d), CLY-4 intravenous injection group (1 mg/kg·d), CLY-8 intravenous injection group (1 mg/kg·d), CLY-9 intravenous injection group (1 mg/kg·d), CLY-11 intravenous injection group (1 mg/kg·d), CLY-19 intravenous injection group (1 mg/kg·d), and CLY-36 intravenous injection group (1 mg/kg·d), with 10 in each group. Took the inner side of the rabbit's right ear for depilation treatment as the observation area, and the inner side of the left ear of all rabbits as their own negative control, and applied 95% alcohol. The inner side of the right ear of the model group and the treatment group were both coated with 2% coal tar (Alfa Aesar China, which used 95% alcohol to prepare 2% coal tar solution), and evenly applied the sterile cotton swab to the opening of the ear duct on the inner side of the rabbit's ear within the range of about 2 cm×2 cm, once a day, 0.5 mL each time, and wiped the previous application site with warm water for 14 consecutive days to establish the acne micro-pigmentation model. Visually observed the changes of local skin, including ear thickness, hardness, roughness, and whether there was a black angle plug at the hair follicle mouth. 18 hours after the last application, the sample was sacrificed and skin was taken. The skin tissue was taken from the application site by using a 5 mm punch, fixed with 10% formaldehyde, embedded in paraffin, and stained with HE. The histopathological observation and analysis were carried out.\nThe histological grading criteria of the acne model: 3 grades according to histological grade. […] The tight keratin embolism in the hair follicles causes severe expansion of the hair follicles, obvious hyperplasia of the sebaceous duct epithelium, skin bulges and scars, and some sebaceous glands degenerate “3±”.\n(§2) SPSS16 software was used for statistical analysis. The paired t-test was used for the left and right self-contrast, and the t-test was used for the comparison between the groups, P<0.05 was statistically significant."}, "rabbit ear acne model [2]": {"test_system": "rabbit ear acne model", "assay": "Rabbit ear acne model: epidermal thickness, hair follicle area, sebaceous gland diameter", "assay_type": "in vivo, New Zealand rabbits", "details": "rabbit right ear", "from_the_text": "as §1\nThe histopathological changes were observed under the microscope, and the thickness of five different epidermises on a slice was measured with the Biomias99 image analysis system, and the average value was calculated; Detected the area of the two hair follicles and the diameter of the four sebaceous glands with the same position and the most complete structure in the four sections, calculated their average values, and then subtracted the data of the left and right external auditory canal of the rabbits in each group to obtain the difference in the thickness of the left and right ear epidermis, the difference in the area of the hair follicles and the difference in the diameter of the sebaceous glands.\nas §2"}, "[3]": {"assay": "Pharmacokinetic properties of rats (bioavailability)", "assay_type": "in vivo", "details": "rat, po; male SD rats; intravenous 1 mg/kg, intragastric 5 mg/kg; plasma LC/MS/MS", "description": "Male SD rats were randomly assigned to each group, 12 rats in each compound group, and then randomly divided into two groups. Six rats were administered intravenously (1 mg/kg), and blood was collected and plasma was separated respectively at 0.0833, 0.25, 0.5, 1, 2, 4, 6, 8, and 24 hours after administration. The other six rats were administered intragastrically (5 mg/kg), and blood was collected and plasma was separated respectively at 0.25, 0.5, 1, 2, 4, 6, 8, and 24 hours after administration. The concentration of each compound in plasma was determined by LC/MS/MS method, and the relevant pharmacokinetic parameters were calculated by using the software Phoenix WinNonlin 6.2.1, the bioavailability in rats was calculated, and the pharmacokinetic properties of each compound were evaluated."}, "[4]": {"details": "external use (0.25% CLY cream; positive: Differin)"}, "[5]": {"details": "intravenous injection 1 mg/kg·d"}}, "note": "Marks after values point to notes of the source that are not given here."}
{"smiles": "O=C(c1ccc(-n2nnc3cccnc32)cc1)N(c1ncccc1Cl)[C@@H]1CCCN1", "note": "[CLY-9]", "values": [{"measurement": "number of rabbits with acne histological grading 2+", "setting": "rabbit ear acne model [1]; [4]", "value": 1}, {"measurement": "number of rabbits with acne histological grading 2+", "setting": "rabbit ear acne model [1]; [5]", "value": 0}, {"measurement": "number of rabbits with acne histological grading —", "setting": "rabbit ear acne model [1]; [4]", "value": 5}, {"measurement": "number of rabbits with acne histological grading —", "setting": "rabbit ear acne model [1]; [5]", "value": 7}, {"measurement": "number of rabbits with acne histological grading 1+", "setting": "rabbit ear acne model [1]; [4]", "value": 4}, {"measurement": "number of rabbits with acne histological grading 1+", "setting": "rabbit ear acne model [1]; [5]", "value": 3}, {"measurement": "number of rabbits with acne histological grading 3+", "setting": "rabbit ear acne model [1]; [4]", "value": 0}, {"measurement": "number of rabbits with acne histological grading 3+", "setting": "rabbit ear acne model [1]; [5]", "value": 0}, {"measurement": "epidermal thickness", "setting": "rabbit ear acne model [2]; [4]", "value": "0.2389 ± 0.0189", "unit": "mm"}, {"measurement": "hair follicle area", "setting": "rabbit ear acne model [2]; [4]", "value": "0.2834 ± 0.0981* mm^2"}, {"measurement": "sebaceous gland diameter", "setting": "rabbit ear acne model [2]; [4]", "value": "0.0715 ± 0.0412", "unit": "mm"}, {"measurement": "epidermal thickness", "setting": "rabbit ear acne model [2]; [5]", "value": "0.2126 ± 0.0167", "unit": "mm"}, {"measurement": "hair follicle area", "setting": "rabbit ear acne model [2]; [5]", "value": "0.2327 ± 0.0865* mm^2"}, {"measurement": "sebaceous gland diameter", "setting": "rabbit ear acne model [2]; [5]", "value": "0.0614 ± 0.0396", "unit": "mm"}]}
{"smiles": "COC1CCC[C@@H](N(C(=O)c2cccc(-c3nnn[nH]3)c2)c2ncccc2Cl)C1", "note": "(some centres unmarked) [CLY-17]", "values": [{"measurement": "bioavailability", "setting": "[3]", "value": 52.5, "unit": "%"}]}
{"smiles": "O=C(c1ccc(-c2cccc(-c3nnn[nH]3)c2)cc1)N(c1ncccc1Cl)[C@@H]1CCNC1", "note": "[CLY-18]", "values": [{"measurement": "bioavailability", "setting": "[3]", "value": 46.9, "unit": "%"}]}
{"smiles": "O=C(c1ccccc1-c1nnn[nH]1)N(c1ncccc1Cl)[C@@H]1CCCNC1", "note": "[CLY-21]", "values": [{"measurement": "bioavailability", "setting": "[3]", "value": 49.6, "unit": "%"}]}
{"smiles": "O=C(c1ccc(-c2ccc(Cl)cc2)cc1)N(c1ncccc1Cl)[C@@H]1CCCNC1", "note": "[CLY-26]", "values": [{"measurement": "bioavailability", "setting": "[3]", "value": 48.5, "unit": "%"}]}
{"smiles": "Nc1ccccc1-c1ccc(C(=O)N(c2ncccc2Cl)[C@@H]2CCNC2)cc1", "note": "[CLY-28]", "values": [{"measurement": "bioavailability", "setting": "[3]", "value": 42.6, "unit": "%"}]}
{"smiles": "Cc1ccccc1-c1ccc(C(=O)N(c2ncccc2Cl)[C@@H]2CCNC2)cc1", "note": "[CLY-30]", "values": [{"measurement": "bioavailability", "setting": "[3]", "value": 46.2, "unit": "%"}]}
{"smiles": "CN1CCC[C@@H](N(C(=O)c2ccc(-c3ccccc3)cc2)c2ncccc2Cl)C1", "note": "[CLY-32]", "values": [{"measurement": "bioavailability", "setting": "[3]", "value": 58.6, "unit": "%"}]}
{"smiles": "CCN1CCC[C@@H](N(C(=O)c2ccc(-c3ccc(Cl)cc3)cc2)c2ncccc2Cl)C1", "note": "[CLY-35]", "values": [{"measurement": "bioavailability", "setting": "[3]", "value": 62.2, "unit": "%"}]}
{"smiles": "O=C(c1ccccc1Cl)N(c1ncccc1Cl)[C@@H]1CCCNC1", "note": "[CLY-37]", "values": [{"measurement": "bioavailability", "setting": "[3]", "value": 56.5, "unit": "%"}]}
{"smiles": "CC(C)C(=O)OC(C)n1nnc(-c2c(-c3ccc(C(=O)N(c4ncccc4Cl)C4CCNC4)cc3)cnn2C)n1", "note": "[CLY-44, 1-(5-(4-(4-((3-chloropyridin-2-yl) (((R)-pyrrolidin-3-yl)carbamoyl)phenyl)-1-methyl-1H-pyrazol-5-yl)-2H-tetrazol-2-yl)ethyl isobutyrate]", "values": [{"measurement": "bioavailability", "setting": "[3]", "value": 50.6, "unit": "%"}]}
{"smiles": "COc1ccc(-c2ccc3cc(C(=O)O)ccc3c2)cc1C12CC3CC(CC(C3)C1)C2", "note": "[Positive treatment group, adapalene, reference compound]", "values": [{"measurement": "number of rabbits with acne histological grading 2+", "setting": "rabbit ear acne model [1]; [4]", "value": 3}, {"measurement": "number of rabbits with acne histological grading —", "setting": "rabbit ear acne model [1]; [4]", "value": 5}, {"measurement": "number of rabbits with acne histological grading 1+", "setting": "rabbit ear acne model [1]; [4]", "value": 2}, {"measurement": "number of rabbits with acne histological grading 3+", "setting": "rabbit ear acne model [1]; [4]", "value": 0}, {"measurement": "macroscopic observation of right ear", "setting": "rabbit ear acne model [1]; after 14 days of coal tar, external treatment", "value": "slightly red, with a little desquamation and a small amount of acne"}, {"measurement": "epidermal thickness", "setting": "rabbit ear acne model [2]; [4]", "value": "0.2389 ± 0.0176", "unit": "mm"}, {"measurement": "hair follicle area", "setting": "rabbit ear acne model [2]; [4]", "value": "0.2789 ± 0.0926* mm^2"}, {"measurement": "sebaceous gland diameter", "setting": "rabbit ear acne model [2]; [4]", "value": "0.0723 ± 0.0387", "unit": "mm"}]}
